Test results published in patent US20190183124A1, “METHOD FOR CONTROLLING PESTS IN MODIFIED PLANTS” (BASF SE, priority 2016, published 2019).

Test system: Sweetpotato whitefly (Bemisia tabaci)
Test: Action on Sweetpotato whitefly (Bemisia tabaci) on soybean plants, greenhouse foliar spray
Format: in vivo
Details: for Mean whitefly nymph response (Whitefly Nymphs D.A.A.-2): dose 60 ppm a.i. (text: 60 g a.i./ha, 200 L/ha), two applications 7 days apart, whole plant counts 3 days after 2nd application, greenhouse
Experimental: The active compound tested was formulated as a SL-type formulation.
Action on Sweetpotato whitefly (Bemisia tabaci)
A randomized block, 2 by 3 factorial experimental design was utilized to determine the interaction effects and main effects of two explanatory variables: product rate and soybean variety on the response variable, whitefly mortality. The study was conducted under greenhouse conditions and utilized lntacta™ (Bt-traited) and ‘BMX Potencia’ (non-traited) varieties at growth stage 11, respectively. All study plants were infested with Bemisia tabaciadults prior to application.
Formulated material of compound I-1 was combined with water and applied at concentration of 60 gai/ha with a CO2 pressurized spray boom at 200 L/ha water volume. The first application was timed to a threshold whitefly infestation, and was followed by a second application 7 days later.
Assessments were conducted by taking whole plant counts of adult and immature whiteflies at 3 days after the second application.

CCN(C(=O)c1cnn(C(C)C(C)C)c1C)c1ccnnc1 (stereo not drawn) [I-1, 1-(1,2-dimethylpropyl)-N-ethyl-5-methyl-N-pyridazin-4-yl-pyrazole-4-carboxamide]
Effect against whiteflies in Intacta soybean relative to BMX Potencia (60 g a.i./ha, 3 days after second application, Intacta vs BMX Potencia soybean): synergistic effect | Mean whitefly nymph response (Whitefly Nymphs D.A.A.-2) (BMX Potencia (non-traited) soybean): 4.91 | Mean whitefly nymph response (Whitefly Nymphs D.A.A.-2) (Intacta (Bt-traited) soybean): 0.57
